According to US20080267948A1, “Croos-B Structure Binding Compounds” (priority 2005, published 2008):
“Also recorded” adds a separate entry of the source.

Assays:
[1] = biological target: T1, heat-denatured misfolded ovalbumin (DOVA) (Gallus gallus, UniProt P01012); assay: ELISA binding of tPA to immobilized misfolded ovalbumin after pre-incubation with compounds; set-up: species or system chicken; conditions: for activity at 500 µg/mL: read-out: % tPA binding (after compound incubation), DOVA; for influence on tPA binding to immobilized misfolded OVA: misfolded OVA first overlayed with compound (concentration series), then tPA
T1 construct: purchased Sigma A5503
T1 sequence (P01012 2-386 limits assumed): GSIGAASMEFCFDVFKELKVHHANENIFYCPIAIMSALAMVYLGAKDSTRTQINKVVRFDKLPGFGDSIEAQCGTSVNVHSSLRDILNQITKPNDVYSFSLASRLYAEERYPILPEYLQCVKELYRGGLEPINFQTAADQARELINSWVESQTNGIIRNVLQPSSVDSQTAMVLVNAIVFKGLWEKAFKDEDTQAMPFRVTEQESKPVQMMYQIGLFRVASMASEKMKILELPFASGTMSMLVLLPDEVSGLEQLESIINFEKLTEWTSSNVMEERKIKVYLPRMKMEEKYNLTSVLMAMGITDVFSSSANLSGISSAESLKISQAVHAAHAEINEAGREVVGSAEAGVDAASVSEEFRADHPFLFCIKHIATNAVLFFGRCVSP
Description: (§1) Compounds were now diluted 10× in PBS/0.1% Tween20 (500 μg/ml compound). […] With this approach a further selection of the compounds was achieved. Now, compounds that at least interact with HB-AGE are selected. With the selection, similar binding assays are performed with misfolded OVA and Aβ. Finally, concentration series of the selected compounds are used in the binding studies.

[2] = biological target: T2, amyloid-β(1-40) E22Q (Homo sapiens, UniProt P05067, E693Q); assay: ELISA binding of tPA to immobilized Aβ after pre-incubation with compounds; conditions: for % tPA binding (after compound incubation), Aβ: 1 μg/ml coated Aβ first exposed to 500 μg/ml compound, then 80 nM tPA, control = 100
T2 construct: For similar ELISA's with DOVA and Aβ(1-40) E22Q, 1 μg/ml DOVA or Aβ was coated; purchased Peptide facility, Dutch Cancer Institute, Amsterdam; host or cells: synthetic peptide
Description: as §1

[3] = biological target: T3, Hb-AGE (glucose-6-phosphate modified human haemoglobin) (Homo sapiens, UniProt P68871+P69905); assay: ELISA binding of tPA to immobilized Hb-AGE, compounds co-incubated with tPA; conditions: compound mixed with tPA, control without compound = 100
T3 construct: purchased Sigma-Aldrich H7379
Description: The small compound library is depicted in Tables 4-5. […] Binding experiments were performed in single wells per compound, in a duplicate experiment. Binding data obtained with this duplicate experiment was averaged.
• 1. […] Coat buffer in control wells. • 2. wash three times with wash buffer • 3. Block all wells with 300 μl 0.5*recommended concentration Roche blocking reagent for 30 minutes at room temperature, with agitation • 4. wash twice • 5. […] Incubate for 30 minutes at room temperature, with agitation • 7. wash five times with TBS/0.1% Tween20 • 8. […] Incubate for 30 minutes at room temperature, with agitation • 10. wash five times with TBS/0.1% Tween20 • 11. Fill wells with 3000× diluted horse raddish peroxidase-labeled polyclonal rabbit anti-mouse antibody (RAMPO, DAKOCytomation) • 12. Incubate for 20 minutes at room temperature, with agitation • 13. Wash five times with TBS/0.1% Tween20 • 14. Wash twice with PBS • 15. Stain with 100 μl TMB, stop with 50 μl 10% H2SO4 • 16. Read absorbance at 450 nm

[4] = biological target: T4, Hb-AGE (Homo sapiens, UniProt P68871+P69905); assay: ELISA binding of tPA to immobilized Hb-AGE after pre-incubation with compounds; conditions: Hb-AGE first overlayed with compound (concentration series), then tPA
T4 construct: purchased Sigma-Aldrich H7379
Description: Compounds were now diluted 10× in PBS/0.1% Tween20 (500 μg/ml compound). […] With the selection, similar binding assays are performed with misfolded OVA and Aβ. Finally, concentration series of the selected compounds are used in the binding studies.

[5] = biological target: T5, ovalbumin (Gallus gallus, UniProt P01012); assay: Transmission electron microscopy of ovalbumin heated in the presence of small compounds; set-up: species or system chicken; conditions: 1 mg/ml ovalbumin heated with 1 mg/ml compound
T5 construct: purchased Sigma A5503
T5 sequence (P01012 1-386): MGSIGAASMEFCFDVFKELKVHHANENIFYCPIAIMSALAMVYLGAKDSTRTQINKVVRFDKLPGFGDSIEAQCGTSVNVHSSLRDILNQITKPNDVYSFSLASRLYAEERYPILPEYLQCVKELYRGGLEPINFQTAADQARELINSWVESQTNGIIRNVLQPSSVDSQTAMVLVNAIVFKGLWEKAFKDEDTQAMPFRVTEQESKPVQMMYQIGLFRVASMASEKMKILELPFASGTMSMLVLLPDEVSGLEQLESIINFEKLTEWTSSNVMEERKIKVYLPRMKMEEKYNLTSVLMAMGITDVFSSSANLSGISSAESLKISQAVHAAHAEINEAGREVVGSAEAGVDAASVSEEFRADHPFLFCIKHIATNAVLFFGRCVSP
Description: For TEM analyses grids were prepared according to standard procedures. Ovalbumin samples at 1 mg/ml were applied to 100-mesh copper grids with carbon coated Formvar (Merck, Germany), and subsequently washed with PBS and H2O. Grids were applied to droplets of 2% (m/v) methylcellulose with 0.4% (m/v) uranylacetate pH 4. After a 2-minutes incubation grids were dried on a filter. Images were recorded at 80 kV, at suitable magnifications on a JEM-1200EX electron microscope (JEOL, Japan).

[6] = biological target: T6, tPA/plasminogen (Homo sapiens, UniProt P00750); assay: tPA/plasminogen activation by OVA heated in the presence of compounds (substrate PNAPEP1751); assay type: biochemical; conditions: 25 μg/ml OVA, 25 μg/ml compound, […] DMSO
T6 construct: purchased Boehringer Ingelheim Actilyse
Description: Heated OVA, either in PBS/1% DMSO (positive control), or in the same buffer in the presence of 1 mg/ml of the compounds, was used 40-fold diluted in the assay. Negative control was buffer without OVA. […] In addition, it was assessed whether the compounds interfere with absorbance readings at 405 nm, with converted chromogenic substrate. […] The yellow solution is divided over wells of an ELISA plate. […] Signals are compared and related to the control.

[7] = biological target: T7, heat-denatured ovalbumin (Gallus gallus, UniProt P01012); assay: Thioflavin T fluorescence of ovalbumin and small compounds; set-up: species or system chicken; conditions: 1 mg/ml compound, 1 mg/ml OVA
T7 construct: purchased Sigma A5503
T7 sequence (P01012 1-386): T5 sequence (P01012 1-386)
Description: To establish the enhancement of Thioflavin T fluorescence by ovalbumin preparations, 90 μl of 25 μM ThT-solution in 50 mM Glycine buffer (pH 9.0) was added to 10 μl sample in duplicate wells of black 96-wells plates. Heat-denatured ovalbumin at 1 mg/ml in PBS with no addition, DMSO at a final concentration of 1% v/v, or 1 mg/ml of the compounds listed in Table 7, was used. Compound stocks are 100 mg/ml in DMSO. In addition, ovalbumin at 1 mg/ml with the same additions was first heat denatured and subsequently used in the fluorescence assay. Heat denaturation was according to the protocol given above. Fluorescence of duplicates was measured on a Thermo Fluoroskan Ascent 2.5, at 435 nm excitation and 485 nm emission wavelengths.

T2 sequence (P05067 672-711 E693Q): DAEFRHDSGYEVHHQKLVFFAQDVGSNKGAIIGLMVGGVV
T3 sequence (P69905 2-142 limits assumed): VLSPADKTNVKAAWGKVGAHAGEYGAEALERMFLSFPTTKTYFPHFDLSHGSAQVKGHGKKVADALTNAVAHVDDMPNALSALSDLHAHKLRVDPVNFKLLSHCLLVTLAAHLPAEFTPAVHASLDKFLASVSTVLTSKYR
T3 sequence (P68871 2-147 limits assumed): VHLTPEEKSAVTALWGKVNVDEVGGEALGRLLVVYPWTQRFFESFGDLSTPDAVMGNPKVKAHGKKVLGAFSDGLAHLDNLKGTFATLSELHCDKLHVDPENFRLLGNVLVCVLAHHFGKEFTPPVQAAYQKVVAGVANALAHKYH
T4 sequence (P69905 2-142 limits assumed): as the sequence (P69905 2-142 limits assumed) above
T4 sequence (P68871 2-147 limits assumed): as the sequence (P68871 2-147 limits assumed) above
T6 sequence (P00750 36-562): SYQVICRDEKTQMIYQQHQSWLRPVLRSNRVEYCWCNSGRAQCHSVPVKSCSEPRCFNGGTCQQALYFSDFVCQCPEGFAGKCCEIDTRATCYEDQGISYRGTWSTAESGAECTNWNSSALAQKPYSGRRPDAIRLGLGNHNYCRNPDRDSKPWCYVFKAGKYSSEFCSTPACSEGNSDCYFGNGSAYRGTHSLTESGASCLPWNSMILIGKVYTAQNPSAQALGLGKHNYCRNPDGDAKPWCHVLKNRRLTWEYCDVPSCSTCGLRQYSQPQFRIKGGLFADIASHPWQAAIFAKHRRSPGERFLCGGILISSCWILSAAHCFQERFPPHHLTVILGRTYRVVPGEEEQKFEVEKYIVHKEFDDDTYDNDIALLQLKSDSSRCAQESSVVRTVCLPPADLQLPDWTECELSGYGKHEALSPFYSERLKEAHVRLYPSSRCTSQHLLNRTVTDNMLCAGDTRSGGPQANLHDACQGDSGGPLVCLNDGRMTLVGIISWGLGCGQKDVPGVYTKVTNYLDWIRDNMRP

SMILES | activity at 500 µg/mL [1] [%] | % tPA binding (after compound incubation), Aβ [2] [%] | % tPA binding to Hb-AGE (co-incubation) [3] [%] | other results
COc1cc2c(cc1OC)-c1c(OC)c(OC)c(C=O)c3c1[C@H](C2)N(C)CC3 [compound 213, dehydroglaucine derivative] | 105 | 210 | 60 | 
Br.CC(=O)N1C=C(C2CCCCN2)CCC1 (centres unmarked) [compound 217, Ammophedrine HBr] |  |  |  | influence on tPA binding to immobilized misfolded OVA [1]: Inhibited tPA binding to immobilized misfolded protein (Hb-; influence on tPA binding to immobilized Hb-AGE [4]: Inhibited tPA binding to immobilized misfolded protein (Hb-; appearance of ovalbumin heated in the presence of compound on TEM image ([5]; HBr): less OVA aggregates after heating in the presence of the; also recorded: Only small amorphous aggregates like Control
COc1ccc2c(c1O)-c1c(OC)c(OC)cc3c1[C@H](C2)N(C)CC3 [compound 138] | 65 |  | 50 | 
CN1CCc2cccc3c2C1Cc1ccc(O)c(O)c1-3 (centres unmarked) [compound 85] | 135 |  |  | 
Cn1ccc(O)c(C#N)c1=O [compound 51] |  |  |  | influence on tPA/plasminogen activation by OVA pre-heated in the presence of compound [6]: Inhibition of tPA/plasminogen activation by OVA pre-heated; influence on tPA binding to immobilized misfolded OVA [1]: Stimulated tPA binding to immobilized misfolded protein
COc1cc2c(cc1OC)-c1c(OC)c(OC)c(CO)c3c1C(C2)N(C)CC3 (centres unmarked) [compound 71] |  |  | 50 | 
COc1cc2c(cc1O)CC1c3c(cc(O)c(OC)c3-2)CCN1C (centres unmarked) [compound 53] |  |  | 55 | 
Cc1ccc(C(=O)[C@@H]2[C@H]3C4COC(O4)C(=O)[C@@H]3[C@H]3C=Cc4ccccc4N32)cc1 (some centres unmarked) [compound 15] |  |  |  | influence on Thioflavin T fluorescence with misfolded OVA [7]: Inhibition on Thioflavin T fluorescence with misfolded OVA; influence on tPA binding to immobilized Aβ ([2]; Aβ first overlayed with compound (concentration series), then tPA): Inhibited tPA binding to immobilized misfolded protein (Aβ)
COc1cc2c(Cc3c4c5c(cc(OC)c(OC)c5c5c(OC)c(OC)ccc35)CCN4C)c3c4c(cc(OC)c(OC)c4c2cc1OC)CCN3C [compound 210, dehydroglaucine derivative] | 90 | 30 | 80 | 
COc1cc2c(cc1O)-c1c(O)c(OC)cc3c1[C@H](C2)N(C)CC3 [compound 203, Bracteoline] | 105 | 85 | 55 | 
COc1cc2c(cc1OC)-c1c(OC)c(OC)cc3ccnc(c13)C2=O [compound 204, 7-Oxoglaucine] | 80 | 55 | 70 | 
COC(=O)[C@H]1[C@H]2C[C@H]3c4[nH]c5ccccc5c4CCN3C[C@@H]2CC[C@@H]1O [compound 126, corynanthine] |  |  |  | influence on tPA binding to immobilized misfolded OVA [1]: Stimulated tPA binding to immobilized misfolded protein; appearance of ovalbumin heated in the presence of compound on TEM image [5]: No protein visible
